This is an account of results in US20020077328A1, “Selective cyclooxygenase-2 inhibitors and vasomodulator compounds for generalized pain and headache pain” (priority 2000, published 2002).

A short description of the data set: Solubility of celecoxib and valdecoxib in various solvent liquids. In kind it is physicochemical. The procedure: Aliquots of a solvent liquid were then added dropwise in approximately 100 mg increments to the solid sample. The resulting mixture was vortexed and/or sonicated between aliquot additions. […] Solubility values preceded by the < symbol denote that, at the particular concentration shown, the mixture was still cloudy, i.e., not all of the drug was fully in dissolved form.

[1] abbreviates: Labrasol ™ /DGME/propylene glycol laurate 40:40:20 w/w.
Where [2] appears, read: Polyethylene glycol 400/water 1:1 w/w.
[3] abbreviates: Polyethylene glycol 400/water 2:1 w/w.
Setting [4] is: Propylene glycol laurate/Labrasol ™ 1:1 w/w.
The mark [5] stands for this setting: Tagat ™ TO/Capmul ™ MCM 1:1 w/w.

A value given as a limit tells only on which side of the number the result lay.

Turning to `Cc1ccc(-c2cc(C(F)(F)F)nn2-c2ccc(S(N)(=O)=O)cc2)cc1` [celecoxib], the Solubility is recorded as 13 mg/g (Arlacel ™ 186); 19 − 21 mg/g (Capmul ™ MCM); 36 mg/g (Cremophor ™ EL); 3 mg/g (DGME/water 1:1 w/w); 42 mg/g (DGME/water 2:1 w/w); 25 mg/g (Ethyl caprylate). In addition, the Solubility is recorded as 64 mg/g (Labrasol ™); 335 mg/g (Labrasol ™ /DGME 1:1 w/w); 266 mg/g (Labrasol ™ /DGME/propylene glycol laurate 35:35:30 w/w); 288 − 297 mg/g under setting [1]; 313 − 325 mg/g (Labrasol ™ /DGME/propylene glycol laurate 45:45:10 w/w); 6 − 12 mg/g (Miglyol ™ 812). The Solubility (Polyethylene glycol 400) is recorded as 304 mg/g; the Solubility under setting [2] is listed as less than 1 mg/g; the Solubility under setting [3] was found to be 6 mg/g; the Solubility (Polysorbate 80) came out at 73 mg/g; the Solubility (Propylene glycol) is on record as 23 − 41 mg/g; the Solubility (Propylene glycol laurate) came to 18 mg/g. Besides, the Solubility is recorded as 58 mg/g under setting [4]; 212 mg/g (Tagat ™ /Capmul ™ MCM/DGME 35:35:30 w/w); 274 mg/g (Tagat ™ /Capmul ™ MCM/DGME 58:12:30 w/w); 24 − 40 mg/g (Tagat ™ TO); 34 − 52 mg/g under setting [5]; 188 mg/g (Tetraethylene glycol dimethyl ether). The compound also yielded a Solubility (Triethylene glycol monoethyl ether) of 170 mg/g.

Regarding `Cc1onc(-c2ccccc2)c1-c1ccc(S(N)(=O)=O)cc1` [valdecoxib], the “Advantage in solubility for DGME over propylene glycol” value was “approximately tenfold”. Moreover, where the note is “Capmul ™ MCM”, the Solubility is listed as 13 mg/g. The compound also had a Solubility (DGME/water 1:1 w/w) of 6 mg/g. Also, where the note is “DGME/water 2:1 w/w”, the Solubility was 32 mg/g. For the setting “Diethylene glycol monoethyl ether (DGME)”, this compound returned a Solubility of 120 mg/g. The compound further displayed a Solubility (Labrasol ™) of 34 mg/g. Under setting [1], the Solubility is 130 mg/g. For the same compound, the Solubility (Polyethylene glycol 400) was 50 − 85 mg/g. Moreover, under setting [2], the Solubility is 1 mg/g. Under setting [3], the Solubility is recorded as 13 mg/g. Also, under “Propylene glycol”, the Solubility was 10 − 20 mg/g. Besides, the Solubility (Propylene glycol laurate) was found to be 22 mg/g. Under setting [4], this compound returned a Solubility of 42 mg/g. The compound further showed a Solubility (Tagat ™ TO) of 23 mg/g. The compound further had a Solubility under setting [5] of 24 mg/g.
